In US5064815A, “Primycin-containing colloidal basic gel” (Chinoin Gyogyszer es Vegyeszeti Termekek Gyara RT., priority 1985, dated 1991):
Where a name gives a salt, the structure may show the parent alone. Read-outs that look alike come from different tables or passages of the source.

Tests used:
[1] = Spontaneous gel-formation with solvents / with N-methyl-pyrrolidone / mixed gels; assay type: physicochemical
Description: We have studies spontaneous gel-formation with various solvents on the one hand and various pharmaceutical active ingredients on the other. The following solvents are used: methanol, ethanol, isopropanol, n-butanol, isobutanol, dichloromethane, chloroform, carbon tetrachloride, ethyl acetate, acetonitrile, n-hexane, petrol, benzene, toluene, petrolether, ether, dimethyl formamide, dimethyl sulfoxide, isopropyl myristate.
Furtheron gel-formation has been studied between N-methyl-pyrrolidone and further pharmaceutical active ingredients. The following active ingredients are used: gentamycin, doxycyclin, oxolinic acid, nalidixic acid, drotaverin, theophyllin, acetyl salicylic acid, papaverin, indomethacin.
We have studied furtheron the possibility of the preparation of mixed gels comprising two active ingredients, including antibiotics other then primycin (e.g. gentamicin, doxycyclin, oxytetracyclin, chloramphenicol etc.).

[2] = Solubility in N-methyl pyrrolidone; assay type: physicochemical; conditions: for Behaviour of heated N-methyl pyrrolidone solution on cooling: significant heating needed
Description: We have examined the quantity in ml of N-methyl-pyrrolidone which is necessary to dissolve 0.1 gram of each respective compound.

acne = conditions: human, in vivo
gram-positive bacteria = conditions: cited from earlier work

Row | Compound | Gel formation with N-methyl-pyrrolidone [1] | Required amount of N-methyl pyrrolidone necessary to dissolve 0.1 g ([2]; (A) Room Temperature) | Required amount of N-methyl pyrrolidone necessary to dissolve 0.1 g ([2]; (B) Under Heating) | also measured
1 | COc1ccc2c(c1)c(CC(=O)O)c(C)n2C(=O)c1ccc(Cl)cc1 [indomethacin] | None of the above active ingredients form a stable transparent gel |  |  | 
2 | CC(=O)Oc1ccccc1C(=O)O [acetyl salicylic acid] | None of the above active ingredients form a stable transparent gel |  |  | 
3 | gentamycin | None of the above active ingredients form a stable transparent gel |  |  | 
4 | [5-(18-(α-D-arabinofuranosyloxy)-2-butyl-3,7,11,15,19,21,23,25,27-nonahydroxy-4,16,32,34-tetramethyl-1-oxo-oxacyclohexatriaconta-16,32-dien-35- yl)-4-hydroxyhexyl]-guanidinium-sulfate [Primycin] | spontaneous gel-formation resulting in the formation of a stable transparent gel | does not dissolve | 0.5 milliliters | Solubility in N-methyl-pyrrolidone (in words) [2]: not easily dissolved; Temperature-dependance of the solubility [2]: more than two orders of magnitude; Absorption into the blood stream (acne): not to be absorbed by the blood stream; Skin irritation on topical application (acne): severe irritation to the skin; Toxicity upon entry into the bloodstream (acne): significantly toxic; Pure gel formation with other solvents ([1]; ethanol amine, diethanol amine, triethanol amine, dimethyl formamide, dimethyl sulfoxide, 5-30%): pure gel is formed neither in the cold nor in the warm; Stable gel formation with solvents ([1]; methanol, ethanol, isopropanol, n-butanol, isobutanol, dichloromethane, chloroform, carbon tetrachloride, ethyl acetate, acetonitrile, n-hexane, petrol, benzene, toluene, petrolether, ether, dimethyl formamide, dimethyl sulfoxide, isopropyl myristate): None of the above solvents forms a stable gel with primycin; Precipitation from 1% solutions (1% solutions prepared under heating, on cooling): primycin precipitated upon cooling; Solubility, dissolved material (methanol): 2 µg/mL; Solubility, dissolved material (propylene glycol): 5 µg/mL; Solubility, dissolved material (water): 0.05 µg/mL; Effect in combination with other antibiotics (gram-positive bacteria; Hungarian patent No. 158,241): synergistic effect; Antibacterial spectrum (gram-positive bacteria; prior art): particularly effective against gram-positive bacteria but active against polyresistant human pathogenic strains as well; Resistance development (gram-positive bacteria; prior art): No resistance has developed
5 | C[C@@H]1[C@H](O)[C@@H](C)/C=C/C=C/CC/C=C/C=C/C=C/C=C/C(O[C@H]2O[C@H](C)[C@@H](O)[C@H](N)[C@@H]2O)CC2O[C@](O)(CC(O)C(O)CCC(O)CC(O)CC(O)CC(=O)O[C@H]1C)CC(O)C2C(=O)O (stereo partly drawn) [Nystatin] |  | 5.0 milliliters | 2.0 milliliters | 
6 | CCn1cc(C(=O)O)c(=O)c2cc3c(cc21)OCO3 [oxolinic acid] | None of the above active ingredients form a stable transparent gel | does not dissolve | 8.0 milliliters | Behaviour of heated N-methyl pyrrolidone solution on cooling [2]: precipitates after
7 | CCOc1ccc(/C=C2\NCCc3cc(OCC)c(OCC)cc32)cc1OCC [drotaverin] | None of the above active ingredients form a stable transparent gel |  |  | 
8 | C[C@H]1c2cccc(O)c2C(O)=C2C(=O)[C@]3(O)C(O)=C(C(N)=O)C(=O)[C@@H](N(C)C)[C@@H]3[C@@H](O)[C@@H]21 [doxycyclin] | None of the above active ingredients form a stable transparent gel | 10.0 milliliters | 2.0 milliliters | 
9 | COc1ccc(Cc2nccc3cc(OC)c(OC)cc23)cc1OC [papaverin] | None of the above active ingredients form a stable transparent gel |  |  | 
10 | CC(=O)OCC(=O)[C@@]1(O)CC[C@H]2[C@@H]3CCC4=CC(=O)CC[C@]4(C)[C@H]3[C@@H](O)C[C@@]21C [Hydrocortisone-Acetate] |  | 1.0 milliliters | 0.2 milliliters | 
11 | CCCSc1ccc2nc(NC(=O)OC)[nH]c2c1 [Albendazole] |  | 1.5 milliliters | 1.0 milliliters | 
12 | [H]/N=C(/N)N[C@H]1[C@H](O)[C@@H](O)[C@H](O[C@@H]2O[C@@H](C)[C@](O)(C=O)[C@H]2O[C@@H]2O[C@@H](CO)[C@H](O)[C@@H](O)[C@@H]2NC)[C@@H](N/C(N)=N\[H])[C@@H]1O [Streptomycin Sulfate] |  | 20.0 milliliters | does not dissolve | 
13 | CCn1cc(C(=O)O)c(=O)c2ccc(C)nc21 [nalidixic acid] | None of the above active ingredients form a stable transparent gel | does not dissolve | 6.0 milliliters | Behaviour of heated N-methyl pyrrolidone solution on cooling [2]: precipitates after cooling
14 | Cn1c(=O)c2[nH]cnc2n(C)c1=O [theophyllin] | None of the above active ingredients form a stable transparent gel |  |  | 
